Legend:
[1] = Sensory evaluation (tasting) of glycoside solutions in reverse osmosis water, Test A and Test B; format: in vivo; details: for summary of sensory evaluation: summary of Example 5
Protocol: (§1) Glycoside samples (SG101-104) were isolated and purified from fermentation broth, purified Rebs A, B, and D are of leaf origin and Reb M is chemically synthesized. All samples were dissolved in reverse osmosis water at the concentrations indicated. Unsweetened black tea was used in one set of experiments. Approximately 2-3 milliliters of each solution was tasted and sensory evaluations conducted by two individuals. In one set of experiments a third individual also tasted.

[2] = Sensory evaluation (tasting) of glycoside solutions in unsweetened black tea, Test A; format: in vivo
Protocol: as §1

[3] = Sucrose equivalent value (SEV) in citric acid buffer; format: in vivo; details: for SEV: citric acid buffer at pH=3.0; for Sucrose equivalent value / relative sweetness scale-sucrose = 1: 250 ppm in citric buffer, pH = 3.0
From the text: Sweetness may be determined by measuring sucrose equivalent values (SEV) using methods and processes well known to those skilled in the art. For example, SEV may be determined by measuring sweetness equivalence to a reference sucrose solution. Typically, taste panelists are trained to detect and scale sweetness of reference sucrose solutions containing between 10 g to 150 g/kg sucrose. A sweetener composition containing one or more glycosides are then tasted at a series of dilutions to determine the concentration of the sweetener composition that is as sweet as a given sucrose reference. For example, if a sweetener composition is as sweet as 50 g/kg of sucrose solution in a citric acid buffer at pH 3.1, then the sweetener composition is assigned a SEV of 5.
For example, SEVs for SG101 and SG102 at 200 ppm are 0.6 and 1.0, respectively; SEV=1.6 for SG101 at 500 ppm and SEV=1.2 at 400 ppm; and SEV=1.5 for SG102 at 400 ppm (as measured in a citric acid buffer at pH=3.0). Thus, at ppm<500, SG101 may be employed as a sensory modifier, and at ppm<400, SG102 may be employed as a sensory modifier in a beverage.

[4] = Instantaneous solubility in deionized water at room temperature; format: physicochemical; details: for instantaneous solubility: water
From the text: The composition can optionally be expressed in terms of the concentration of one or more steviol glycoside(s). Beneficially, it has been founds that compound(s) SG101-104 can improve solubility of steviol glycosides in an aqueous solution, and therefore compositions can be prepared having a greater concentration of steviol glycosides in solution. […] Clear solutions without precipitates are considered soluble. Unless indicated otherwise herein, the term “solubility” refers to “equilibrium solubility.”
Instantaneous solubility is determined by mixing steviol glycoside with deionized water vigorously for 10 minutes at room temperature. […] Clear solutions without precipitates are considered soluble.

[5] = Equilibrium solubility (80° C. for 15 minutes, cooled to room temperature, observed up to 4 days); format: physicochemical; details: for equilibrium solubility (soluble/insoluble): 80° C. 15 minutes, then room temperature up to 4 days; for equilibrium solubility: heated to 80° C. for 15 minutes, room temperature, at least 4 days
From the text: The composition can optionally be expressed in terms of the concentration of one or more steviol glycoside(s). Beneficially, it has been founds that compound(s) SG101-104 can improve solubility of steviol glycosides in an aqueous solution, and therefore compositions can be prepared having a greater concentration of steviol glycosides in solution. […] Clear solutions without precipitates are considered soluble. Unless indicated otherwise herein, the term “solubility” refers to “equilibrium solubility.” […]

[6] = literature; cited from earlier work
[7] = literature; cited from earlier work; remark: listed apart in the source
[8] = Test A, 200 ppm in water, three experienced taste testers
[9] = SG compound alone in tea, about 200 ppm (Table 7)

C=C1C[C@@]23CCC4[C@](C)(C(=O)OC5OC(CO)C(O)C(OC6OC(CO)C(O)C(O)C6O)C5OC5OC(CO)C(O)C(O)C5O)CCC[C@@]4(C)[C@@H]2CCC1(OC1OC(COC2OC(CO)C(O)C(O)C2O)C(O)C(OC2OC(CO)C(O)C(O)C2O)C1OC1OC(CO)C(O)C(O)C1O)C3 (stereo partly drawn) [SG102]
sensory comments [1, 8]: a bit sweeter than 1-1, sweetness does have quick onset | summary of sensory evaluation [1]: less sweet than SG103 and SG104 | sensory comments [2, 9]: Not sweet, slightly less astringent, some additional roundedness | SEV ([3]; 200 ppm): 1.0 | SEV ([3]; 400 ppm): 1.5

C=C1C[C@@]23CC[C@H]4[C@@](C)(CCC[C@@]4(C)C(=O)O[C@@H]4O[C@H](CO)[C@@H](O)[C@H](O[C@@H]5O[C@H](CO)[C@@H](O)[C@H](O)[C@H]5O)[C@H]4O[C@@H]4O[C@H](CO)[C@@H](O)[C@H](O)[C@H]4O)[C@@H]2CC[C@]1(O[C@@H]1O[C@H](CO)[C@@H](O)[C@H](O[C@@H]2O[C@H](CO)[C@@H](O)[C@H](O)[C@H]2O)[C@H]1O[C@@H]1O[C@H](CO)[C@@H](O)[C@H](O)[C@H]1O)C3 [Reb M, rebaudioside M]
instantaneous solubility (soluble/insoluble) ([4]; 0.10% in deionized water): soluble | instantaneous solubility (soluble/insoluble) ([4]; 0.13% in deionized water): soluble | instantaneous solubility (soluble/insoluble) ([4]; 0.20% in deionized water): insoluble | instantaneous solubility (soluble/insoluble) ([4]; 0.30% in deionized water): insoluble | instantaneous solubility [4]: at least 0.13% | instantaneous solubility ([4]; listed as rebaudioside M): about 0.13% | equilibrium solubility (soluble/insoluble) ([5]; 0.10%): soluble | equilibrium solubility (soluble/insoluble) ([5]; 0.13%): soluble | equilibrium solubility (soluble/insoluble) ([5]; 0.20%): soluble | equilibrium solubility (soluble/insoluble) ([5]; 0.30%): insoluble | equilibrium solubility [5]: at least 0.2% | equilibrium solubility ([5]; listed as rebaudioside M): about 0.2% | sensory comments [1, 8]: Typical mid-sweet for Reb M, fairly well rounded, quick rise, some tailing, some bitter | sensory comments ([1]; Test A, 400 ppm in water): Higher sweet, faster onset than 200 ppm, cotton candy sweetness—skews to HFCS longer linger, sharper bitterness—but not oppressing sweetness | sensory comments ([1]; Test B, Reb M alone in water, concentration not stated (200-398 ppm prepared)): clean, sweet, spiky sweetness | sensory comments ([2]; Reb M alone in tea, concentration not stated (200.4 and 401.0 ppm prepared)): Nice subtle sweetness, feels like sugar, but with long linger very good | taste properties [6]: has higher sweetness intensity and is more potent than other steviol glycosides | aqueous solubility [7]: poor aqueous solubility and dissolution qualities in beverage formulations

C=C1C[C@@]23CCC4[C@](C)(C(=O)OC5OC(CO)C(O)C(O)C5OC5OC(CO)C(O)C(O)C5O)CCC[C@@]4(C)[C@@H]2CCC1(OC1OC(CO)C(O)C(OC2OC(COC4OC(CO)C(O)C(O)C4O)C(O)C(O)C2O)C1OC1OC(CO)C(O)C(O)C1O)C3 (stereo partly drawn) [SG103]
sensory comments [1, 8]: as sweet or sweeter than 200 ppm Reb M, more sucrosey, sugary quality characteristics (high fructose corn syrup (HFCS), cotton candy notes) are reminiscent of Reb M at 400 ppm but not as sweet, “fuller” feeling | summary of sensory evaluation [1]: good sole sweeteners | sensory comments [2, 9]: Slower onset than Reb M by itself, not as sweet as Reb M, slightly more licorice aftertaste | Sucrose equivalent value [3]: 4.8 | relative sweetness scale-sucrose = 1 [3]: 192X

C=C1C[C@@]23CC[C@H]4[C@@](C)(CCC[C@@]4(C)C(=O)O[C@@H]4O[C@H](CO)[C@@H](O)[C@H](O)[C@H]4O[C@@H]4O[C@H](CO)[C@@H](O)[C@H](O)[C@H]4O)[C@@H]2CC[C@]1(O[C@@H]1O[C@H](CO)[C@@H](O)[C@H](O[C@@H]2O[C@H](CO)[C@@H](O)[C@H](O)[C@H]2O)[C@H]1O[C@@H]1O[C@H](CO)[C@@H](O)[C@H](O)[C@H]1O)C3 [Reb D, rebaudioside D]
instantaneous solubility (soluble/insoluble) ([4]; 0.08% in deionized water, clear solution without precipitates = soluble): insoluble | instantaneous solubility (soluble/insoluble) ([4]; 0.10% in deionized water): insoluble | instantaneous solubility (soluble/insoluble) ([4]; 0.15% in deionized water): insoluble | instantaneous solubility (soluble/insoluble) ([4]; 0.20% in deionized water): insoluble | instantaneous solubility [4]: < 0.08% | instantaneous solubility ([4]; listed as rebaudioside D): less than 0.08% | equilibrium solubility (soluble/insoluble) ([5]; 0.08%): soluble | equilibrium solubility (soluble/insoluble) ([5]; 0.10%): insoluble | equilibrium solubility (soluble/insoluble) ([5]; 0.15%): insoluble | equilibrium solubility (soluble/insoluble) ([5]; 0.20%): insoluble | equilibrium solubility [5]: 0.08% | taste properties [6]: slow onset of sweetness and was very clean | times sweeter than sucrose [6]: 200-220 times | aqueous solubility [7]: low solubility in water at room temperature

C=C1C[C@@]23CC[C@H]4[C@@](C)(CCC[C@@]4(C)C(=O)O[C@@H]4O[C@H](CO)[C@@H](O)[C@H](O)[C@H]4O)[C@@H]2CC[C@]1(O[C@@H]1O[C@H](CO)[C@@H](O)[C@H](O[C@@H]2O[C@H](CO)[C@@H](O)[C@H](O)[C@H]2O)[C@H]1O[C@@H]1O[C@H](CO)[C@@H](O)[C@H](O)[C@H]1O)C3 [Reb A, rebaudioside A]
taste properties [6]: has off-taste issues

C=C1C[C@@]23CCC4[C@](C)(C(=O)OC5OC(CO)C(O)C(O)C5OC5OC(CO)C(O)C(O)C5O)CCC[C@@]4(C)[C@@H]2CCC1(OC1OC(COC2OC(CO)C(O)C(O)C2O)C(O)C(OC2OC(CO)C(O)C(O)C2O)C1OC1OC(CO)C(O)C(O)C1O)C3 (stereo partly drawn) [SG101]
sensory comments [1, 8]: not sweet, astringent, cloying—mouth drying on the tongue | summary of sensory evaluation [1]: less sweet than SG103 and SG104 | sensory comments [2, 9]: Zero sweetness, seems less than in water, naked tea | SEV ([3]; 200 ppm): 0.6 | SEV ([3]; 400 ppm): 1.2 | SEV ([3]; 500 ppm): 1.6

C=C1C[C@@]23CCC4[C@](C)(C(=O)OC5OC(CO)C(O)C(OC6OC(CO)C(O)C(O)C6O)C5OC5OC(CO)C(O)C(O)C5O)CCC[C@@]4(C)[C@@H]2CCC1(OC1OC(CO)C(O)C(OC2OC(COC4OC(CO)C(O)C(O)C4O)C(O)C(O)C2O)C1OC1OC(CO)C(O)C(O)C1O)C3 (stereo partly drawn) [SG104]
sensory comments [1, 8]: as sweet or sweeter than 200 ppm Reb M, more rounded sweetness, enhanced sugar quality effects (sensations reminiscent of sucrose, vanilla), “fuller” feeling | summary of sensory evaluation [1]: good sole sweeteners | sensory comments [2, 9]: As sweet as Reb M, very sucrosey compared to Reb M, a little back end licorice | Sucrose equivalent value [3]: 6.5 | relative sweetness scale-sucrose = 1 [3]: 260X

— patent publication US20220295849A1, “Steviol Glycoside Compositions for Oral Ingestion or Use” (CARGILL, Incorporated, priority 2016, published 2022)
